# In patent US20080292584A1 (priority 2005, published 2008):
# “And” between values parts separate entries of the source, which are not always exact repeats. Equal entries are not always repeated.
# What was measured:
# CYP2C8 = molecular target: T1, CYP2C8 (Homo sapiens, UniProt P10632); experiment: Metabolism of metaxalone by expressed recombinant human CYP2C8 at 5 or 20 pmol (Example 4); conditions: for % Turnover Mean / [metaxalone] Mean / % Turnover % / [metaxalone]: 60 min; for % Turnover % / [metaxalone]: single replicates
# T1 sequence (P10632 1-490): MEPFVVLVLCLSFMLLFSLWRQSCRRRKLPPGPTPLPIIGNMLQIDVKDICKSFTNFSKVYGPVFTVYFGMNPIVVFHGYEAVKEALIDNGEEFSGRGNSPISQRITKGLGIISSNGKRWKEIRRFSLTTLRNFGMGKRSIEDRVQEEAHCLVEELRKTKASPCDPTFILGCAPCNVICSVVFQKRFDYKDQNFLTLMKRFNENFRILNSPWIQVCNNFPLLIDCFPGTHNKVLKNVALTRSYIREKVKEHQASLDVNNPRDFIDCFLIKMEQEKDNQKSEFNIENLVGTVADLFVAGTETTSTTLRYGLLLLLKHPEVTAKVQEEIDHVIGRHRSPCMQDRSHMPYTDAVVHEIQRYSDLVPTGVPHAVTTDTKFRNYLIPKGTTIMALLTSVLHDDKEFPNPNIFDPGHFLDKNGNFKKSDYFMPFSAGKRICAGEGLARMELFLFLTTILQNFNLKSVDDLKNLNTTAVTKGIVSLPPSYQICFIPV
# CYP2B6 [1] = experiment: Chemical inhibition of metaxalone turnover in human liver microsomes, CYP2B6 inhibitor thio-TEPA; conditions: 1 mg/mL HLM, 60 min, with thio-TEPA; for % Turnover / % inhibition of turnover / Conc.: single replicates
# Procedure: Human liver microsomes pooled from 15 individuals (male and female) (Pool HMMC-PL020; CellzDirect, Inc., In Vitro Products and Services Division) were used in some experiments of this study.
# % Turnover=100−{[TA(final)]/[mean of TA(0 min)]}×100,
# % Inhibition of Turnover=100{1−([TA(0 min)]−[TA(final-inhibitor)])/([TA(0 min)]−[TA(final-no inhibitor)])}.
# The inhibitors or vehicle control were incubated with the pooled human liver microsomes (1 mg/mL) and NADPH (1 mM) in 0.1 M phosphate buffer, pH 7.4. […] Incubations were conducted in triplicate and terminated by addition of organic solvent. Samples were extracted and analyzed by LC-MS/MS as described above.
# CYP2B6 [2] = molecular target: T2, CYP2B6 (Homo sapiens, UniProt P20813); experiment: Inhibition of CYP2B6 activity in pooled human liver microsomes (S-mephenytoin 1 mM to nirvanol); type: in vitro ADME
# T2 sequence (P20813 1-491): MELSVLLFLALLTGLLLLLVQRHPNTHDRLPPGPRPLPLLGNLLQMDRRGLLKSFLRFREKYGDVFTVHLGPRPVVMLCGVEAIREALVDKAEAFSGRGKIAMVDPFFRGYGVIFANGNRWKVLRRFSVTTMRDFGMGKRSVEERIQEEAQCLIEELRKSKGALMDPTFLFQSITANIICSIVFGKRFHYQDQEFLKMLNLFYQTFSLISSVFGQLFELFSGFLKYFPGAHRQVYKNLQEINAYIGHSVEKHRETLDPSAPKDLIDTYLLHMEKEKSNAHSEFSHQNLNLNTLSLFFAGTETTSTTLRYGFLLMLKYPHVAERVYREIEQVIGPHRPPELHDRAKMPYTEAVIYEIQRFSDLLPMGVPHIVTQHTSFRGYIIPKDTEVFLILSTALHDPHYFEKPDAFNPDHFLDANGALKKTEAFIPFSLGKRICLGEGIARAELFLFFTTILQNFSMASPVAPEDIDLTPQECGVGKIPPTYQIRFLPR
# Procedure: All other incubations were for 30 minutes.
# Four replicates were performed.
# Two replicates were performed.
# CYP2D6 = CYP2D6 (Homo sapiens, UniProt P10635); experiment: Metabolism of metaxalone by expressed recombinant human CYP2D6 at 5 or 20 pmol (Example 4); conditions: for percent turnover / % Turnover Mean / [metaxalone] Mean / % Turnover % / [metaxalone]: 60 min; for % Turnover % / [metaxalone]: single replicates, listed as Metaxalone
# Procedure: For CYP2C9 and CYP2D6, SUPERSOMES singly-expressing different allelic variants of the cytochrome p450 isozyme were commercially available. For each of CYP2C9 and CYP2D6, only the *1 allele was tested in these experiments. […]
# [3] = 0.75 μM metaxalone, 5 pmol cyp, listed as Metaxalone
# [4] = 0.75 μM metaxalone, 20 pmol cyp
# [5] = 0.75 μM metaxalone, 20 pmol cyp, listed as Metaxalone
# [6] = 7.5 μM metaxalone, 5 pmol cyp, listed as Metaxalone
# [7] = 7.5 μM metaxalone, 20 pmol cyp, listed as Metaxalone
# [8] = 7.5 μM metaxalone, listed as Metaxalone
# Sequence of CYP2D6 (P10635 whole entry): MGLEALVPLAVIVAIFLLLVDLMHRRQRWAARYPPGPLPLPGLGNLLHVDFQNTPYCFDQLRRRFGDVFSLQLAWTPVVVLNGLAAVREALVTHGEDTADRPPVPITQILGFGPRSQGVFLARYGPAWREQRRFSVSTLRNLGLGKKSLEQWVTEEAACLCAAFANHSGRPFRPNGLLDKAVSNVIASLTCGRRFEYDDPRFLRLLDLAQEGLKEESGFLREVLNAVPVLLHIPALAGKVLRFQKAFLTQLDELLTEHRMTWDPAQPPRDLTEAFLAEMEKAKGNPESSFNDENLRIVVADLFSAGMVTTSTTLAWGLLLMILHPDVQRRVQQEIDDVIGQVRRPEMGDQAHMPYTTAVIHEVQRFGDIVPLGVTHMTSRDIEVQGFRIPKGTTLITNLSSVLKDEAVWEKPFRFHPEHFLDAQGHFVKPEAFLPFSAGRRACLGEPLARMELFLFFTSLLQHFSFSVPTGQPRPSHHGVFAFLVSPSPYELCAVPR
smiles,measurement,setting,value
"Cc1cc(C)cc(OCC2CNC(=O)O2)c1 (stereo not drawn) [metaxalone, 5-[(3,5-dimethylphenoxy)methyl]-2-oxazolidinone]",% Turnover Mean,"CYP2C8; 0.75 μM metaxalone, 5 pmol cyp",−9.3%
same,[metaxalone] Mean,"CYP2C8; 0.75 μM metaxalone, 5 pmol cyp",0.865 µM
same,% Turnover %,CYP2C8; [3],−2.6% and −10.9% and −14.3%
same,[metaxalone],CYP2C8; [3],0.812 µM and 0.877 µM and 0.905 µM
same,% Turnover Mean,CYP2C8; [4],2.9%
same,[metaxalone] Mean,CYP2C8; [4],0.768 µM
same,% Turnover %,CYP2C8; [5],0.19% and 6.1% and 2.5%
same,[metaxalone],CYP2C8; [5],0.790 µM and 0.743 µM and 0.771 µM
same,% Turnover Mean,"CYP2C8; 7.5 μM metaxalone, 5 pmol cyp",3.0%
same,[metaxalone] Mean,"CYP2C8; 7.5 μM metaxalone, 5 pmol cyp",8.20 µM
same,% Turnover %,"CYP2C8; 7.5 μM metaxalone, 5 pmol cyp",−1.6%
same,% Turnover %,CYP2C8; [6],0.21%
same,[metaxalone],CYP2C8; [6],7.58 µM and 8.43 µM and 8.58 µM
same,% Turnover Mean,"CYP2C8; 7.5 μM metaxalone, 20 pmol cyp",9.3%
same,[metaxalone] Mean,"CYP2C8; 7.5 μM metaxalone, 20 pmol cyp",7.66 µM
same,% Turnover %,CYP2C8; [7],4.3% and 10.2% and 13.4%
same,[metaxalone],CYP2C8; [7],8.09 µM and 7.59 µM and 7.31 µM
same,Substrate,"CYP2C8; CYP isozyme 2C8, summary of studies",+
same,% Turnover Mean,CYP2B6 [1]; 0.75 μM metaxalone,12.4%
same,% inhibition of turnover Mean,CYP2B6 [1]; 0.75 μM metaxalone,58.3%
same,Mean Conc.,CYP2B6 [1]; 0.75 μM metaxalone,0.676 µM
same,% Turnover,CYP2B6 [1]; 0.75 μM metaxalone,12.1% and 11.3% and 13.8%
same,% inhibition of turnover,CYP2B6 [1]; 0.75 μM metaxalone,59.3% and 62.0% and 53.7%
same,Conc.,CYP2B6 [1]; 0.75 μM metaxalone,0.678 µM and 0.684 µM and 0.665 µM
same,% Turnover Mean,CYP2B6 [1]; 7.5 μM metaxalone,14.0%
same,% inhibition of turnover Mean,CYP2B6 [1]; 7.5 μM metaxalone,43.3%
same,Mean Conc.,CYP2B6 [1]; 7.5 μM metaxalone,7.33 µM
same,% Turnover,CYP2B6 [1]; 7.5 μM metaxalone,7.7%
same,% Turnover,CYP2B6 [1]; [8],14.8% and 19.4%
same,% inhibition of turnover,CYP2B6 [1]; [8],68.7% and 40.0% and 21.1%
same,Conc.,CYP2B6 [1]; [8],7.86 µM and 7.26 µM and 6.86 µM
same,inhibition of CYP activity at a statistically significant level,"CYP2B6 [2]; 0.3-100 μM metaxalone, p≦0.05",inhibited
same,Inhibitor,"CYP2B6 [2]; CYP isozyme 2B6, summary of studies",+
same,Percent of VC,CYP2B6 [2]; metaxalone 0.3 μM,90.2%
same,Specific Activity Individual,CYP2B6 [2]; metaxalone 0.3 μM,27.9 pmol/min/mg protein and 25.6 pmol/min/mg protein and 27.5 pmol/min/mg protein
same,Specific Activity Mean ± SD,CYP2B6 [2]; metaxalone 0.3 μM,27.0 ± 1.21 pmol/min/mg protein
same,Percent of VC,CYP2B6 [2]; metaxalone 1 μM,99.5%
same,Specific Activity Individual,CYP2B6 [2]; metaxalone 1 μM,27.3 pmol/min/mg protein and 29.5 pmol/min/mg protein and 32.6 pmol/min/mg protein
same,Specific Activity Mean ± SD,CYP2B6 [2]; metaxalone 1 μM,29.8 ± 2.68 pmol/min/mg protein
same,Percent of VC,CYP2B6 [2]; metaxalone 3 μM,90.6%
same,Specific Activity Individual,CYP2B6 [2]; metaxalone 3 μM,26.3 pmol/min/mg protein and 26.9 pmol/min/mg protein and 28.2 pmol/min/mg protein
same,Specific Activity Mean ± SD,CYP2B6 [2]; metaxalone 3 μM,27.1 ± 1.00 pmol/min/mg protein
same,Percent of VC,CYP2B6 [2]; metaxalone 30 μM,96.6%
same,Specific Activity Individual,CYP2B6 [2]; metaxalone 30 μM,28.9 pmol/min/mg protein and 28.7 pmol/min/mg protein and 29.2 pmol/min/mg protein
same,Specific Activity Mean ± SD,CYP2B6 [2]; metaxalone 30 μM,28.9 ± 0.216 pmol/min/mg protein
same,Percent of VC,CYP2B6 [2]; metaxalone 100 μM,83.7%
same,Specific Activity Individual,CYP2B6 [2]; metaxalone 100 μM,24.9 pmol/min/mg protein and 24.6 pmol/min/mg protein and 25.7 pmol/min/mg protein
same,Specific Activity Mean ± SD,CYP2B6 [2]; metaxalone 100 μM,25.1 ± 0.581 pmol/min/mg protein
same,percent turnover,"CYP2D6; 0.75 μM metaxalone, 5 pmol CYP450",9.9%
same,% Turnover Mean,"CYP2D6; 0.75 μM metaxalone, 5 pmol cyp",9.9%
same,[metaxalone] Mean,"CYP2D6; 0.75 μM metaxalone, 5 pmol cyp",0.642 µM
same,% Turnover %,"CYP2D6; 0.75 μM metaxalone, 5 pmol cyp",8.8% and 11.6% and 9.1%
same,[metaxalone],"CYP2D6; 0.75 μM metaxalone, 5 pmol cyp",0.649 µM and 0.629 µM and 0.647 µM
same,percent turnover,"CYP2D6; 0.75 μM metaxalone, 20 pmol CYP450",19.5%
same,% Turnover Mean,CYP2D6; [4],19.5%
same,[metaxalone] Mean,CYP2D6; [4],0.573 µM
same,% Turnover %,CYP2D6; [4],23.3% and 16.7% and 18.5%
same,[metaxalone],CYP2D6; [4],0.546 µM and 0.593 µM and 0.581 µM
same,percent turnover,"CYP2D6; 7.5 μM metaxalone, 5 pmol CYP450",12.6%
same,% Turnover Mean,"CYP2D6; 7.5 μM metaxalone, 5 pmol cyp",12.6%
same,[metaxalone] Mean,"CYP2D6; 7.5 μM metaxalone, 5 pmol cyp",6.74 µM
same,% Turnover %,"CYP2D6; 7.5 μM metaxalone, 5 pmol cyp",10.7% and 12.5% and 14.5%
same,[metaxalone],"CYP2D6; 7.5 μM metaxalone, 5 pmol cyp",6.89 µM and 6.75 µM and 6.60 µM
same,percent turnover,"CYP2D6; 7.5 μM metaxalone, 20 pmol CYP450",24.9%
same,% Turnover Mean,"CYP2D6; 7.5 μM metaxalone, 20 pmol cyp",24.9%
same,[metaxalone] Mean,"CYP2D6; 7.5 μM metaxalone, 20 pmol cyp",5.79 µM
same,% Turnover %,"CYP2D6; 7.5 μM metaxalone, 20 pmol cyp",23.9% and 23.5% and 27.3%
same,[metaxalone],"CYP2D6; 7.5 μM metaxalone, 20 pmol cyp",5.87 µM and 5.90 µM and 5.61 µM
same,Substrate,"CYP2D6; CYP isozyme 2D6, summary of studies",+
